Here are results for 9 molecules from patent US20220387344A1, “COMPOSITIONS AND METHODS FOR INHIBITING COLLAGEN LOSS” (LYCORED LTD., priority 2019, published 2022).

Data set [1] has as its system NHDF cells. Description: Collagen 1a1 secretion by NHDF cells under H2O2 oxidative stress (ELISA). The class given is cell-based, human. Particulars: 50 μM H2O2. The method, then: Cells were incubated with Lumenato for 24 h and then hydrogen peroxide (H2O2) was added, and cells were incubated for additional 24 h to induce oxidative stress. The incubation medium was collected and the levels of collagen 1 a 1 protein secretion to the medium were analyzed using a specific ELISA detection kit.
Background: In an ELISA, binding on a coated surface is turned into a signal by an enzyme label.

The subject of data set [2] is KERTr human keratinocytes. Description: Viability of KERTr keratinocytes under H2O2 oxidative stress (XTT). In kind it is cell-based. Particulars: H2O2 alone. The method, then:
(§1) The inventors used hydrogen peroxide, H2O2, to induce oxidative stress in KERTr human keratinocytes, and analyzed the effects on cell number (cell death) and the secretion of MMP1. Cells viability was determined using the XTT cell proliferation kit, and MMP1 levels were measured by ELISA.
(In general: Formazan colour is commonly taken as a measure of viable cells.)

The subject of data set [3] is KERTr human keratinocytes. Description: MMP1 secretion by KERTr keratinocytes under H2O2 oxidative stress (ELISA). Particulars: H2O2 alone. In kind it is cell-based. The method, then: as §1
The nature of data set [4]: Plasma carotenoids after Lumenato capsules (bioavailability). In kind it is in vivo. As to conditions: delivered within Lumenato capsules, plasma at 1, 2, 3 and 4 weeks post administration. The source says:
The inventors have examined the bioavailability of carotenoids delivered within Lumenato capsules. The following carotenoids were quantified in the plasma at 1 week, 2 weeks, 3 weeks, and 4 weeks post administration. Phytoene, phytofluene and zeta-carotene which are the main carotenoids in Lumenato (the golden tomato extract) were absorbed well (FIG. 15).

Data set [5] deals with human neutrophils. Description: MMP-9 secretion from stimulated human neutrophils (ELISA). In kind it is cell-based. Particulars: agonist alone. How it is done: (§2) Blood was drawn from healthy volunteers. Neutrophils, at 95% purity were obtained by Ficoll-Hypaque centrifugation, dextran sedimentation, and hypotonic lysis of erythrocytes within 1 hour after blood was drawn. Cells were counted and their viability was determined by trypan blue exclusion. Human MMP-9 concentrations in cell culture supernatants were quantified by ELISA kits (R&D systems Minneapolis, Minn., USA). […] Neutrophils were activated by 100 ng/ml TNFα or 100 ng/ml IL8 that are released from the skin cells during exposure to UV and activated. In addition, neutrophils were activated with […] for comparison.

In data set [6] the test system is human neutrophils. Description: MPO secretion from stimulated human neutrophils. Particulars: agonist alone. The class given is cell-based. The method, then: as §2, with “100 μl of 37° C. O-dianisidine hydrochloride solution (1 mg O-dianisidine, 10 ml phosphate buffer pH 6.0+0.0015% H2O2) were added to 100 μl supernatant” for “Human MMP-9 concentrations”, “a 96-well plate immediately before the optical density was followed” for “cell culture supernatants were quantified”, “the change of absorbance at 450 nm at 2 minute intervals on a Thermomax Microplate Reader (Molecular Devices, Melno Park, Calif.).” for “ELISA kits (R&D systems Minneapolis, Minn., USA).”

Data set [7] deals with human neutrophils. Description: MPO activity of TNFα-activated neutrophils incubated overnight with single or combined phytonutrients. The class given is cell-based. Particulars: sole addition. How it is done: 100 μl of 37° C. O-dianisidine hydrochloride solution (1 mg O-dianisidine, 10 ml phosphate buffer pH 6.0+0.0015% H2O2) were added to 100 μl supernatant in a 96-well plate immediately before the optical density was followed by the change of absorbance at 450 nm at 2 minute intervals on a Thermomax Microplate Reader (Molecular Devices, Melno Park, Calif.).
Tocopherol and phytosterol were added to 5×10^5 human neutrophils 20 min before addition of 100 ng/ml TNFα and maintained overnight at 37° C. in a humidified atmosphere containing 5% CO2. MPO activity was measured in the supernatant of the cultured neutrophils.
Zeta carotene, phytoene, tocopherol, phytosterol, or combinations thereof, were added to 5×10^5 human neutrophils 20 min before addition of 100 ng/ml TNFα and maintained overnight at 37° C. in humidified atmosphere containing 5% CO2. MPO activity was measured as escribed above.
The inventors examined the effect of multiple phytonutrients on MPO activity in stimulated neutrophils. The sole addition of tocopherol or phytosterol had no effect on the release and activity of MPO from neutrophils activated with TNFα (FIGS. 13A-13B).
The inventors also examined the effect of adding zeta carotene with either phytoene, a tocopherol, or a phytosterol, on MPO activity. […]

The mark [8] stands for this setting: 2 hr of activation, TNFα or IL8 100 ng/ml.

Consider `OO` [H2O2, hydrogen peroxide], for which the “reduction in collagen 1a1 secretion” value in data set [1] is on record as “about 10 fold”. The “cell number (cell death)” value in data set [2] is listed as “dose dependent cell death”. For the same molecule, the “secretion of MMP1” value in data set [3] was “increased secretion of MMP1”.

For the molecule `CC(C)=CCC/C(C)=C/CC/C(C)=C/CC/C(C)=C/C=C/C=C(\C)CC/C=C(\C)CC/C=C(\C)CCC=C(C)C` [phytoene], the “absorption (plasma concentration)” value in data set [4] is “absorbed well”. On to `CC(C)=CCC/C(C)=C/CC/C(C)=C/C=C/C(C)=C/C=C/C=C(\C)CC/C=C(\C)CC/C=C(\C)CCC=C(C)C` [phytofluene], for which, in data set [4], the “absorption (plasma concentration)” value is “absorbed well”. `CC(C)=CCC/C(C)=C/CC\C(C)=C/C=C/C(C)=C/C=C/C=C(C)/C=C/C=C(/C)CC/C=C(\C)CCC=C(C)C` [zeta carotene]: the results for the “absorption (plasma concentration)” value in data set [4] (listed as Zeta carotene) and in data set [4] (listed as zeta-carotene) were “absorbed extremely well” and “absorbed well”, respectively. On to “IL8: interleukin 8, agonist used to stimulate neutrophils”, for which the “release of MMP-9” value was determined as 9.12 ± 0.2 ng/mL in data set [5] (setting [8]) and 17.86 ± 0.4 ng/mL in data set [5] (4 hr of activation). Also, in data set [6] (4 h of activation), the “release of MPO” value was 0.4 ± 0.08 ng/mL.

With TNFα, the “release of MMP-9” value in data set [5] (setting [8]) is 16.52 ± 0.5 ng/mL. The “release of MPO” value in data set [6] (4 h of activation) is 0.28 ± 0.001 ng/mL.

With “formyl-Methionine-Leucine-Phenylalanine [fMLP]”, the “release of MMP-9” value in data set [5] (30 min of activation) amounted to 10.41 ± 0.4 ng/mL; in data set [5] (4 hr of activation) it was 13.45 ± 0.3 ng/mL. Also, in data set [6] (30 min of activation), the “release of MPO” value turned out to be 0.54 ± 0.004 ng/mL.

Regarding phytosterol, the “effect on release and activity of MPO” value in data set [7] is “no effect”.

As to tocopherol, the “effect on release and activity of MPO” value in data set [7] is reported as “no effect”.
